Assay results as given in US5821224A, “Antimicrobial peptides from bovine neutrophils” (Regents of the University of California, priority 1994, dated 1998).
“Also recorded” adds a separate entry of the source. Bridges are numbered along the chain shown (N, C = ends). Where no end group is shown, it is not given here. [ ]: non-standard residue; d: D form. pGlu = O=C1CC[C@@H](C(=O)O)N1

Columns and labels:
[1] = tested on: Escherichia coli ML35; test: Radial diffusion antibacterial assay, E. coli ML35; assay type: cell-based; settings: 5 μl of peptide, 10 to 300 μg/ml, FIG. 7
Experimental: (§1) FIG. 7. Antibacterial activities of purified beta defensins. Nutrient agar plates seeded with E. coli ML35 (.oval-solid.) or S. aureus 502A (.smallcircle.) were used to assess antibacterial activity of 13 neutrophil beta-defensins in addition to rabbit defensin NP-1, bactenecin dodecapeptide, and indolicidin. Activity is expressed as the diameter of clearing (mm) resulting from the application of 5 μl of peptide at the concentrations shown.
(§2) Antimicrobial assay. Escherichia coli ML35 and Staphylococcus aureus 502A were utilized in a radial diffusion assay recently described by Lehrer et al. (J. Immunol. Meth. 167-173 (1991)). Bacteria were grown to mid-log phase in trypticase soy broth (TSB), diluted into 10 ml of warm (43° C.) 1% agarose containing 3 mg of TSB, buffered with 10 mM sodium phosphate, pH 7.4. Five μl of each peptide solution was pipetted into wells formed with a 4 mm cork bored and allowed to incubate at 37° C. for 3-4 hours. Plates were then overlaid with 10 ml of sterile 1% agar containing 2×TSB. Following incubation for 18 to 24 hours, the diameter of the clear zone surrounding each well was measured using a magnified transilluminator.
(§3) Antimicrobial activity of beta-defensins. The antibacterial activity of each beta-defensin was evaluated using Staphylococcus aureus 502A and Escherichia coil ML35 as test organisms. Using a sensitive radial diffusion assay, each peptide was tested against the two bacterial organisms with beta-defensin concentrations ranging from 10 to 300 μg/ml. The data presented in FIG. 7 reveal the dose-dependent activity of each peptide as measured by the size of the clear zone surrounding the sample well. In most cases, the log of the peptide concentration was linearly related to the diameter of the growth-free zone. […] In most cases, the zone of clearing was greater against E. coli than S. aureus.

[2] = tested on: Staphylococcus aureus 502A; test: Radial diffusion antibacterial assay, S. aureus 502A; assay type: cell-based; settings: 5 μl of peptide, 10 to 300 μg/ml, FIG. 7
Experimental: as §1, §2, §3

[3] = tested on: Candida albicans 16820; assay type: cell-based; settings: 0 to 50 μg/ml, 60 minutes, FIG. 15
Experimental: (§4) Candida albicans 16820 and Cryptococcus neoformans 271A were grown with shaking for 24 hours or days, respectively, at 37° C. in Sabouraud Dextrose Broth (SDB, DIFCO). To obtain midlogarithmic phase organisms, 1.0 ml of overnight culture was inoculated into 50 ml of SDB and incubated for 3 hours (C. albicans) or overnight (C. neoformans) with shaking. The cultures were centrifuged at 10,000 rpm for 10 minutes at 4° C., washed with cold 10 mM phosphate buffer, pH 7.4, and resuspended in cold buffer to a concentration of 1×10^7 cells/ml. The fungicidal assay mixture contained 30 1 of the phosphate buffer, 10 μl (1×10^5 cells) of the fungal stock suspension, and 10 μl of peptide giving final peptide concentrations of 0 to 50 μg/ml. Incubations were carried out at 37° C. for 60 minutes, after which a 30 μl aliquot was removed and diluted 10, 100, and 1000-fold. Duplicate 100 μl samples of each dilution were spread onto SDB plates and incubated for 18 hours at 37° C. Plates were incubated for 1 or 2 days at 37° C. Surviving organisms were quantitated by colony counting using a Darkfield Colony Counter (Quebec).

[4] = tested on: Cryptococcus neoformans 271A; test: Fungicidal assay (colony counting), Cryptococcus neoformans 271A; assay type: cell-based; settings: 60 minutes, FIG. 16; for fungicidal potency against C. neoformans: 0 to 50 μg/ml; for fungicidal effectiveness against C. neoformans at highest concentration: 50 μg/ml
Experimental: as §4

[5] = tested on: E. coli ML35; test: Bactericidal assay (colony counting), E. coli ML35; assay type: cell-based, Escherichia coli; settings: below 50 μg/ml, 30 minutes, FIG. 14
Experimental: A 1:500 dilution of overnight cultures of E. coli ML35 and S. aureus 502A was incubated with shaking for 2.5 to 3 hours at 37° C. in trypticase soy broth (TSB). The bacteria were centrifuged at 10,000 rpm for 10 minutes at 4 c, washed with cold 10 mM sodium phosphate buffer, pH 7.4 and resuspended in cold phosphate buffer to a concentration of 1×10^7 cells/ml. Solutions of various concentrations of BNBDs were made up in 10 mM sodium phosphate buffer, pH 7.4. The bactericidal assay mixture contained 30 μl of the phosphate buffer, 10 μl (1×10^5 cells) of the bacterial stock solution, and 10 μl of peptide giving final peptide concentrations of 0 to 50 μg/ml. Incubations were carried out at 37° C. for 30 minutes, after which a 30 μl aliquot was removed and diluted 10, 100, and 1000-fold. Duplicate 100 μl samples of each dilution were spread into TSB plates and incubated for 18 hours at 37° C. Colonies were counted with the Darkfield Colony Counter (Quebec).

[6] = tested on: E. coli; settings: background, earlier report; cited from earlier work
[7] = tested on: S. aureus; settings: background, earlier report; cited from earlier work

Molecule	antibacterial activity (diameter of clearing) against E. coli [1]	antibacterial activity (diameter of clearing) against S. aureus [2]	further results
BNBD-8: bovine neutrophil beta-defensin 8, 38 residues; identical to BNBD-9 without the pyroglutamyl-glycine extension (SEQ ID NO: 8)	differ in antibacterial potency	differ in antibacterial potency	
BNBD-11: bovine neutrophil beta-defensin 11, 38 residues (SEQ ID NO: 11) (GPLSCRRNGGVCIPIRCPGPMRQIGTCFGRPVKCCRSW; disulfide 12-27, 17-35, 5-34; ends not checked)			fungicidal activity against C. albicans [3]: completely inactive; fungicidal potency against C. neoformans [4]: substantially less active
BNBD-2: bovine neutrophil beta-defensin 2, 40 residues; identical to BNBD-3 without the pyroglutamyl-glycine extension (SEQ ID NO: 2) (VRNHVTCRINRGFCVPIRCPGRTRQIGTCFGPRIKCCRSW; disulfide 14-29, 19-37, 7-36)	equivalent antibacterial activity	equivalent antibacterial activity	
BNBD-5: bovine neutrophil beta-defensin 5, 40 residues (SEQ ID NO: 5)		all but BNBD-1 and BNBD-5 were active	
BNBD-9: bovine neutrophil beta-defensin 9, 40 residues, N-terminal pyroglutamyl (SEQ ID NO: 9) ([pGlu]GVRNFVTCRINRGFCVPIRCPGHRRQIGTCLGPQIKCCR; also: cyclic, type of ring not given here)	most active beta-defensins; also recorded: the greater in vitro activity	most active beta-defensins; also recorded: the greater in vitro activity	
[pGlu]GVRNHVTCRINRGFCVPIRCPGRTRQIGTCFGPRIKCCRSW (disulfide 9-38, 16-31, 21-39) [BNBD-3]	equivalent antibacterial activity	equivalent antibacterial activity	bactericidal potency against E. coli at lower concentrations [5]: the greatest; fungicidal potency against C. neoformans [4]: the most potent
H-SGISGPLSCGRNGGVCIPIRCPVPMRQIGTCFGRPVKCCRSW (disulfide 9-38, 16-31, 21-39) [BNBD-13]	most active beta-defensins; also recorded: approximately equal	most active beta-defensins; also recorded: approximately equal	fungicidal effectiveness against C. neoformans at highest concentration [4]: equally effective
BNBD-7: bovine neutrophil beta-defensin 7, 40 residues (SEQ ID NO: 7)	most active beta-defensins	most active beta-defensins	
BNBD-12: bovine neutrophil beta-defensin 12, 38 residues; disulfide connectivities determined (SEQ ID NO: 12) (GPLSCGRNGGVCIPIRCPVPMRQIGTCFGRPVKCCRSW; disulfide 12-27, 17-35, 5-34)	most active beta-defensins; also recorded: approximately equal	most active beta-defensins; also recorded: approximately equal	
BNBD-1: bovine neutrophil beta-defensin 1, 38 residues, purified from neutrophil granules; sequence in FIG. 5 (SEQ ID NO: 1) (DFASCHTNGGICLPNRCPGHMIQIGICFRPRVKCCRSW; not fully specified (bridges); ends and bridges not checked)		all but BNBD-1 and BNBD-5 were active	
CC[C@H](C)[C@H](N)C(=O)N[C@@H](CC(C)C)C(=O)N1CCC[C@H]1C(=O)N[C@@H](Cc1c[nH]c2ccccc12)C(=O)N[C@@H](CCCCN)C(=O)N[C@@H](Cc1c[nH]c2ccccc12)C(=O)N1CCC[C@H]1C(=O)N[C@@H](Cc1c[nH]c2ccccc12)C(=O)N[C@@H](Cc1c[nH]c2ccccc12)C(=O)N1CCC[C@H]1C(=O)N[C@@H](Cc1c[nH]c2ccccc12)C(=O)N[C@@H](CCCNC(=N)N)C(=O)N[C@@H](CCCNC(=N)N)C(N)=O [indolicidin, reference compound]	the most active peptide against E. coli	nearly as active as rabbit NP-1	bactericidal activity against E. coli [6]: potent bactericidal activity; bactericidal activity against S. aureus [7]: potent bactericidal activity
[pGlu]RVRNPQSCRWNMGVCIPFLCRVGMRQIGTCFGPRVPCCRR (disulfide 9-38, 16-31, 21-39) [BNBD-4]			fungicidal effectiveness against C. neoformans at highest concentration [4]: equally effective
